The values that follow come from paper PMC10928712, “High Target Homology Does Not Guarantee Inhibition: Aminothiazoles Emerge as Inhibitors of Plasmodium falciparum” (ACS Infectious Diseases, 2024).

Converted amounts (≈) assume the structure as drawn. Like-named read-outs stand apart in the source and are kept apart here. Where only a bound is given, the exact number is not on record here.

One may read the EC50 as the midpoint of the concentration-response curve. Usually IC50 stands for the concentration that gives 50% inhibition. For orientation: half-life means how long it takes for the measured level to halve. A high value points to slow decline. In general, Ki refers to the equilibrium dissociation constant of an inhibitor or competing ligand from its target. Usually MIC stands for the lowest concentration found to suppress growth. For orientation: solubility means how much of the substance goes into solution per volume.

Series [1] has as its system P. falciparum 3D7. Also on record: method as in earlier work. The following applies: Novartis HTS 2008; ref (21); cited from earlier work.
A further series relates to P. falciparum W2. Also on record: method as in earlier work. Particulars: Novartis HTS 2008; ref (21); cited from earlier work.
Series [2] relates to Huh7 (human hepatoma cells). The following applies: cited from earlier work.
In series [3] the test system is P. falciparum 3D7. As to the kind of experiment: Method I growth-inhibition assay (SYBR Green I, 96 h). Particulars: Plasmodium falciparum. The format is cell-based. An excerpt: Nonlinear regression as implemented in GraphPad Prism 7.00 (log(inhibitor) vs response – variable slope (four parameters)) was used to fit the measured data to interpolate the IC50 value from the curve. No specific model was applied. Data was preprocessed by normalizing according to the following formula: […]
(§1) eq 1: Fluorescence data normalization [drawing 2] where y is the fluorescence signal in each well, yminimum is the background fluorescence, and ymaximum is the highest measured fluorescence signal in the untreated wells. Drug concentrations (in μM) were transformed to the log(10)of the values. Means of each independent experiment were plotted as individual values, and the SD of the mean from the means shown as error bars. […] In case of transgenic cell lines, the built-in comparison Akaike’s information criteria (AICc) method was applied to the Log IC50s of the different cell lines. The test calculates a percentage probability of the simpler model “Log IC50 is the same for datasets” being correct. The test for homoscedasticity was performed to confirm if no weighting of values was appropriate.

Series [4] relates to P. falciparum 3D7. As to the kind of experiment: Method II growth-inhibition assay (PicoGreen, 3 days), 3D7. It is filed as cell-based. The following applies: Plasmodium falciparum, 3D7, method II. From the text: (§2) Fidock (Columbia University).
Another series deals with P. falciparum NF54. In words: Method II growth-inhibition assay (PicoGreen, 3 days), NF54. It is filed as cell-based. Particulars: Plasmodium falciparum; chloroquine-sensitive NF54, method II.
Excerpt: as §2

Series [5] concerns P. falciparum 3D7. In words: Method III growth inhibition assay (HRP2-ELISA, 3 days), 3D7. It is filed as cell-based, Plasmodium falciparum. A general note: ELISA stands for enzyme-linked immunosorbent assay.
The subject of the next series is P. falciparum Dd2. As to the kind of experiment: Method III growth inhibition assay (HRP2-ELISA, 3 days), Dd2. The following applies: Plasmodium falciparum, DD2, chloroquine-resistant Dd2, method III. It is filed as cell-based, Plasmodium falciparum.
The subject of the next series is Hep G2 cells. As to the kind of experiment: Hep G2 viability assay (counter screen). It is filed as cell-based, human. Particulars: Homo sapiens, HepG2, 48 h, cytotoxicity, 48 h. How it is done:
HepG2 cells (2 × 10^5 cells per well) were seeded in 24-well, flat-bottomed plates. Culturing of cells, incubations, and OD measurements were performed as described previously with small modifications.[58] 24 h after seeding the cells, the incubation was started by the addition of compounds in a final DMSO concentration of 1%. The metabolic activity of the living cell mass was determined after 48 h. At least three independent measurements were performed for each compound. The IC50 values were determined during logarithmic growth using GraphPad Prism software. All experiments were performed at least in triplicate, and data reported represent the mean ± SD.
(In general: Counterscreens check selectivity or assay interference.)

Series [6] in a line: Metabolic stability in human liver S9 fraction. It is filed as in vitro ADME. The following applies: 1 μM compound; for half-life at 1 μM: human, pooled liver S9 fraction. On the procedure:
For the evaluation of combined phase I and phase II metabolic stability, the compound (1 μM) was incubated with 1 mg/mL pooled liver S9 fraction (XenoTech), 2 mM NADPH, 1 mM UDPGA, 10 mM MgCl2, 5 mM GSH, and 0.1 mM PAPS at 37 °C for 0, 5, 15, 30, and 60 min. The metabolic stabilities of testosterone (1 μM), verapamil (1 μM), and propranolol (1 μM) were determined in parallel to confirm the enzymatic activity of the S9 fraction. The incubation was stopped by precipitation of S9 enzymes with two volumes of cold acetonitrile containing internal standard (150 nM diphenhydramine). Samples were stored on ice for 10 min, and precipitated protein was removed by centrifugation (15 min, 4 °C, 4000 rpm). The concentration of the remaining test compound at the different time points was analyzed by LC-MS/MS (TSQ Quantum Access MAX, Thermo Fisher, Dreieich, Germany) and used to determine half-life (t1/2).

A further series concerns P. falciparum 3D7-DXPS+. As to the kind of experiment: Growth inhibition of PfDXPS overexpressing parasites (3D7-DXPS+). The format is cell-based. Particulars: Plasmodium falciparum, 3D7, read-out: PfDXPS IC50. From the text: (§3) The open reading frame (ORF) encoding 1-deoxy-D-xylulose-5-phosphate synthase (PfDXPS; PF3D7_1337200) was amplified from genomic DNA isolated from unsynchronized P. falciparum 3D7 cultures using the Platinum PCR SuperMix High Fidelity (Invitrogen). Forward and reverse primers contained restriction sites for KpnI and AvrII in sense and antisense orientation, respectively (oligonucleotides pfDXPS-Kpn1-S: […]; pfDXPSmyc-Avr2-AS: […] ). PCR products and the transfection vector pARL1a-hDHFR PfARG-GFP were digested with KpnI and AvrII, purified (Gel extraction Kit and PCR purification kit; Qiagen), and cloned into the transfection vector yielding the construct for overexpression pARL-DXS-strep. XL 10-Gold E. coli ultracompetent cells (Agilent Technologies) were transformed with the generated construct to amplify the plasmid and colonies checked using restriction analysis and sequencing of the plasmid. Bacterial clones carrying the overexpression construct and the empty pARL1a vector (MOCK plasmid) were amplified in overnight cultures, isolated (Plasmid Maxi Kit; QIAGEN), and subsequently used to transfect P. falciparum 3D7 ring-stage parasites, as already described.[59] Briefly, 120 μg of plasmid DNA was centrifuged and air-dried, and the pellet was resuspended in TE buffer and cytomix reagent and mixed with the P. falciparum culture. Parasites were transfected using electroporation and selected with WR 99210. The generation and characterization of the PfTPK overexpression cell line has been reported before.[60]
(§4) P. falciparum cultures were treated as described in method I. For target specification toward PfTPK and PfDXPS, compounds were tested in comparison against overexpressing cell lines and the respective MOCK line containing only the transfected vector backbone. Parasite viability/proliferation was determined.

Series [7] deals with P. falciparum 3D7 MOCK cell line. As to the kind of experiment: Growth inhibition of MOCK cell line (vector backbone only). It is filed as cell-based. The following applies: Plasmodium falciparum, 95% CI in brackets.
Excerpt: as §3, §4

In a further series the test system is P. falciparum 3D7-TPK+. In words: Growth inhibition of PfTPK overexpressing parasites (3D7-TPK+). It is filed as cell-based. The following applies: Plasmodium falciparum, 3D7, read-out: PfTPK IC50. How it is done: P. falciparum cultures were treated as described in method I. For target specification toward PfTPK and PfDXPS, compounds were tested in comparison against overexpressing cell lines and the respective MOCK line containing only the transfected vector backbone. Parasite viability/proliferation was determined. Analysis of the IC50 values and interpretation of the curves was performed, as described in Section 4.1.2.44.
as §1

The target of the next series is M. tuberculosis DXPS. More on the design: method as in PMID 36320685. Particulars: Morrison inhibition constant, slow-, tight-binding; read-out: Ki* MtDXPS; cited from earlier work.
The subject of series [8] is Mycobacterium tuberculosis H37Rv strain. Also on record: method as in PMID 36320685. The following applies: cited from earlier work.
The test system of series [9] is blood-stage P. falciparum 3D7. The following applies: Plasmodium falciparum.
Series [10] can be described thus: Kinetic solubility determination. It is filed as physicochemical. The following applies: PBS with 2% DMSO, aqueous buffer, kinetic from dmso stock, PBS buffer and 2% DMSO; read-out: Max. solubility. How it is done: The desired compounds were sequentially diluted in DMSO in a 96-well plate. 3 μL of each well was transferred into another 96-well plate and mixed with 147 μL of PBS. Plates were shaken for 5 min at 600 rpm at room temperature (r.t.), and the absorbance at 620 nm was measured. Absorbance values were normalized by blank subtraction and plotted using GraphPad Prism 8.4.2 (GraphPad Software, San Diego, California, USA). Solubility (S) was determined based on the First X value of AUC function using a threshold of 0.005.

Setting [11] is: 95% CI in brackets, read-out: IC50 B.
Where [12] appears, read: 3D7, method III (HRP2 assay), drc package of R, read-out: IC50 P. falciparum 3D7 (method III).
Where [13] appears, read: Plasmodium falciparum, 3D7, 3D7, method III (HRP2 assay), drc package of R, read-out: IC50 P. falciparum 3D7 (method III).
[14] abbreviates: Plasmodium falciparum, 3D7, 3D7, method III, nonlinear regression as in Figure 2, 95% CI in brackets, read-out: IC50 C.
Setting [15] is: 3D7, read-out: MOCK IC50, MOCK compared with 3D7-DXPS+.
The mark [16] stands for this setting: 3D7, read-out: MOCK IC50, MOCK compared with 3D7-TPK+, single measurement.

With `COC(C(=NO)c1ccc(Cl)cc1)c1ccccc1` (centres unmarked) [CHEMBL581471], the EC50 with P. falciparum 3D7 [1] is greater than 0.912 µM; with P. falciparum W2, greater than 1.61 µM. In series [2], the Huh7 inhibition is greater than 10 µM.
As to `OCc1cn(Cc2ccc(Cl)c(Cl)c2)c2ccccc12` [compound 3], the IC50 in the series with P. falciparum 3D7 [3] (3D7, read-out: IC50 3D7-I) was found to be 25 ± 3 µM; in the series with P. falciparum 3D7 [3] (3D7, read-out: IC50 A [μM]) it was 21.4 µM; in the series on P. falciparum 3D7 [4] (setting [11]) it was 17.1 µM; with P. falciparum 3D7 [4] (read-out: IC50 3D7-II), 17 ± 2 µM; with P. falciparum NF54, 15 ± 2 µM; in the series with P. falciparum 3D7 [5] (setting [12]), 24 ± 6 µM. The IC50 came to 23.6 ± 6.4 µM in the series with P. falciparum 3D7 [5] (setting [13]); 7.9 µM in the series with P. falciparum 3D7 [5] (setting [14]); 13 ± 9 µM in the series on P. falciparum Dd2; 0.8 ± 0.2 µM in the series on Hep G2 cells; 17.9 µM in the series with P. falciparum 3D7-DXPS+; 17.9 µM in series [7] (setting [15]). The values for the IC50 (in series [7] (setting [16]); in the series on P. falciparum 3D7-TPK+; in [9]) were 23.8 µM, 21.1 µM and 8 to 21 µM, respectively. Further, the half-life at 1 μM in series [6] was found to be 10 ± 0.4 min. Moreover, the Ki on M. tuberculosis DXPS was 1.29 ± 0.2 µM. The MIC in series [8] was 10 µM (≈ 3.06 µg/mL).
Regarding `ON=C(Cc1ccc(Cl)cc1)c1ccc(O)cc1O` [compound 2], the IC50 with P. falciparum 3D7 [3] (3D7, read-out: IC50 3D7-I) amounted to 81 ± 3 µM; in the series on P. falciparum 3D7 [3] (3D7, read-out: IC50 A [μM]) it was 74.2 µM; in the series with P. falciparum 3D7 [4] (setting [11]), 43.8 µM; in the series with P. falciparum 3D7 [4] (read-out: IC50 3D7-II), 42 ± 4 µM; in the series with P. falciparum NF54 it was 41 ± 10 µM; in the series with P. falciparum 3D7 [5] (setting [12]), 94 ± 8 µM. Moreover, the IC50 in the series on P. falciparum 3D7 [5] (setting [13]) is 93.8 ± 8 µM; in the series with P. falciparum 3D7 [5] (setting [14]), roughly 46 µM; in the series with P. falciparum Dd2, 89 ± 31 µM; in the series with Hep G2 cells, greater than 50 µM; with P. falciparum 3D7-DXPS+, 110 µM; in series [7] (setting [15]), 110 µM. Moreover, the results for the IC50 (in [7] (setting [16]); in the series with P. falciparum 3D7-TPK+; in series [9]) were 90.4 µM, 90.4 µM and 44 to 74 µM, respectively. Besides, the t1/2 in series [6] was 29 ± 0.7 min. In addition, the half-life at 1 μM in [6] came to 28 min. In addition, the solubility at 5 min in series [10] worked out at 114 ± 6.7 µM (≈ 31.7 µg/mL). Also, the Ki on M. tuberculosis DXPS is 0.27 ± 0.02 µM. Moreover, in series [8], the MIC is 10 µM (≈ 2.78 µg/mL).
